From paper PMC6473159, “Potent Inhibition of Zika Virus Replication by Aurintricarboxylic Acid” (Frontiers in Microbiology, 2019)
Read-outs that look alike come from different tables or passages of the source.

Assays:
[1] = tested on: ZIKV; set-up: method as in Kuivanen et al., 2017; conditions: human retinal pigment epithelial (RPE) cells; ref Kuivanen et al., 2017; cited from earlier work
[2] = tested on: ZIKV Paraiba/2015; assay: Microplaque reduction assay, ZIKV Paraiba/2015 in Vero cells, post-infection treatment; assay type: cell-based; conditions: for selectivity ratio at 36 h: African green monkey, Vero cells infected with ZIKV Paraiba/2015, Paraiba/2015, Vero cells, read-out: SI (selective index, CC50/IC50); for IC50: Zika virus, Vero
[3] = Cell viability assay (CellTiter 96), Vero cells; assay type: cell-based, African green monkey; conditions: African green monkey; for CC50 at 36 h: 36 h post-treatment; for CC50 at 72 h: 72 h post-treatment
Experimental: (§1) Cell viability in Vero and A549 cells was measured using the CellTiter 96 Non-Radioactive Cell Proliferation assay (Promega) following the manufacturer’s instructions. […] Plates were incubated at 37°C in a 5% CO2 atmosphere for 36 or 72 h. Samples were treated with 15 μl of Dye Solution and incubated at 37°C in a 5% CO2 atmosphere for 4 h. Next, cells were treated with 100 μl of Solubilization Solution/Stop Mix and absorbance at 570 nm was measured using a Vmax kinetic microplate reader (Molecular Devices, Waltham, MA, United States). Viability of compound-treated cells was calculated as a percentage relative to values obtained with DMSO-treated cells. Non-linear regression curves and the median cytotoxic concentration (CC50) were calculated using GraphPad Prism software version 8.0.

[4] = Cell viability assay (CellTiter 96), A549 cells; assay type: cell-based, human; conditions: human; for CC50 at 36 h: 36 h post-treatment; for CC50 at 72 h: 72 h post-treatment
Experimental: as §1

[5] = tested on: ZIKV Paraiba/2015; assay: Microplaque reduction assay, ZIKV Paraiba/2015 in A549 cells, post-infection treatment; assay type: cell-based; conditions: for IC50: Zika virus, A549, 36 h; for selectivity ratio at 36 h: human, A549 cells infected with ZIKV Paraiba/2015, Paraiba/2015, A549 cells, post-treatment, read-out: SI (selective index, CC50/IC50)
[6] = tested on: ZIKV-induced CPE in A549 cells; assay: ZIKV-induced cytopathic effect (light microscope), A549 cells; assay type: cell-based, human; conditions: MOI 0.1, 48 h p.i., 25 μM and more clearly 250 μM
[7] = tested on: ZIKV Paraiba/2015; assay: Virus growth kinetics, ZIKV Paraiba/2015 in A549 cells; assay type: cell-based, Zika virus
Experimental: (§2) At 12, 24, 48, and 72 h post-infection (h p.i.), tissue culture supernatants were collected and titrated on Vero cells by immunostaining as described previously ([Marquez-Jurado et al., 2018]).
(§3) Dotted line indicates the limit of detection (20 FFU/ml).

[8] = tested on: ZIKV Puerto Rico/2015; assay: Microplaque reduction assay, ZIKV Puerto Rico/2015 in Vero cells
[9] = tested on: Vaccinia virus; conditions: 30 mg/kg/day, ref Smee et al., 2010; cited from earlier work
[10] = tested on: caspase 3 and 7 activities; assay: Apoptosis assay (Caspase-Glo 3/7), ZIKV-infected Vero cells; conditions: 250 μM
[11] = tested on: Vero cells; assay: Cell viability assay (CellTiter 96), Vero cells; assay type: cell-based, African green monkey; conditions: 36 or 72 h post-treatment, up to highest concentration tested (1,000 μM)
Experimental: as §1

[12] = tested on: ZIKV Uganda/1947; assay: Microplaque reduction assay, ZIKV Uganda/1947 in Vero cells
[13] = tested on: ZIKV-induced CPE in Vero cells; assay: ZIKV-induced cytopathic effect (light microscope), Vero cells; assay type: cell-based, African green monkey; conditions: MOI 0.1, 48 h p.i., 25 μM and more clearly 250 μM
[14] = tested on: ZIKV Nigeria/1968; assay: Microplaque reduction assay, ZIKV Nigeria/1968 in Vero cells
[15] = tested on: caspase 3 and 7 activities; assay: Apoptosis assay (Caspase-Glo 3/7), ZIKV-infected A549 cells; conditions: 250 μM
[16] = tested on: A549 cells; assay: Cell viability assay (CellTiter 96), A549 cells; assay type: cell-based, human; conditions: 36 or 72 h post-treatment, up to highest concentration tested (1,000 μM)
Experimental: as §1

[17] = tested on: ZIKV French Polynesia/2013; assay: Microplaque reduction assay, ZIKV French Polynesia/2013 in Vero cells
[18] = tested on: ZIKV Paraiba/2015; assay: Virus growth kinetics, ZIKV Paraiba/2015 in Vero cells; assay type: cell-based, Zika virus
Experimental: as §2, §3

[19] = tested on: ZIKV Paraiba/2015; assay: Microplaque reduction assay, pre-treatment of Vero cells before ZIKV Paraiba/2015 infection; assay type: cell-based; conditions: for IC50: Zika virus, Vero, fixed 36 h p.i.
[20] = tested on: ZIKV; set-up: method as in Yang et al., 2018; conditions: SNB-19 cells; ref Yang et al., 2018; cited from earlier work
[21] = tested on: ZIKV; set-up: method as in Yang et al., 2018; conditions: ENV+ cells; ref Yang et al., 2018; cited from earlier work
[22] = tested on: ZIKV; set-up: method as in Bullard-Feibelman et al., 2017; conditions: Huh-7 cells; ref Bullard-Feibelman et al., 2017; cited from earlier work
[23] = tested on: ZIKV; set-up: method as in Bullard-Feibelman et al., 2017; conditions: Jar cells; ref Bullard-Feibelman et al., 2017; cited from earlier work
[24] = reading time not stated at the place (assay read at 36 and 72 h)

**Q.** For Nc1ccn([C@@H]2O[C@H](CO)[C@@H](O)C2(F)F)c(=O)n1 [gemcitabine], which SI [1] is on record?
**A.** > 1,000

**Q.** With C[C@H]1C/C=C/Cc2cccc(O)c2C(=O)O[C@@H](C/C=C/NC(=O)C#Cc2ccccc2)C[C@H]1O [saliphenylhalamide] as the molecule, how does the SI [1] read?
**A.** > 200

**Q.** Which selectivity ratio at 36 h ([2]; post-treatment, 36 h) does the source give for CCOC(=O)c1c(CSc2ccccc2)n(C)c2cc(Br)c(O)c(CN(C)C)c12 [ARB, Arbidol] here?
**A.** 4.11

**Q.** And the IC50 ([2]; 36 h)?
**A.** 18.2 ± 1.16 µM

**Q.** And the CC50 at 36 h [3]?
**A.** 74.7 ± 1.09 µM

**Q.** What about the CC50 at 72 h [3] of the same molecule?
**A.** 59.4 ± 1.1 µM

**Q.** And the CC50 at 36 h [4]?
**A.** 114.6 ± 1.08 µM

**Q.** And the CC50 at 72 h [4]?
**A.** 91 ± 1.08 µM

**Q.** And the IC50 [5]?
**A.** 51.9 ± 1.08 µM

**Q.** And the selectivity ratio at 36 h [5]?
**A.** 2.21

**Q.** For COC1=CC(c2cc3ccccc3[nH]2)=N/C1=C\c1[nH]c(C)cc1C [obatoclax], which SI [1] is on record?
**A.** 65

**Q.** What does the source list for O=C(O)C1=CC(=C(c2ccc(O)c(C(=O)O)c2)c2ccc(O)c(C(=O)O)c2)C=CC1=O [ATA, aurintricarboxylic acid]?
**A.** ZIKV-induced CPE [6]: able to prevent ZIKV-induced CPE; selectivity ratio at 36 h ([2]; post-treatment, 36 h): 72.1; SI (selective index, CC50/IC50) ([2]; Paraiba/2015, Vero cells, post-treatment, 36 h): >72.10; SI (selective index), range in Vero cells ([2]; Vero cells, range over all ZIKV strains and pre-/post-treatment settings of this study): 56.98–95.24; IC50 ([2]; 36 h): 13.9 ± 1.09 µM; ZIKV replication (viral titer in supernatant) ([7]; MOI 0.1, 25 μM): partial viral inhibition; ZIKV replication (viral titer in supernatant) ([7]; MOI 0.1, 250 μM): completely inhibited; selectivity ratio at 48 h ([8]; African green monkey, Vero cells infected with ZIKV Puerto Rico/2015): > 57; IC50 ([8]; Zika virus, Vero, 48 h): 17.6 ± 1.16 µM; protection of mice from a lethal challenge [9]: did not protect; caspase 3 and 7 induction as compared to mock-infected cells [10]: 0.4 fold; toxicity (cell viability) [11]: did not observe any toxicity; CC50 at 36 h [3]: > 1000 µM; CC50 at 72 h [3]: > 1000 µM; CC50 [3, 24]: > 1000 µM; selectivity ratio at 48 h ([12]; African green monkey, Vero cells infected with ZIKV Uganda/1947): > 66.3; IC50 ([12]; Zika virus, Vero, 48 h): 15.1 ± 1.19 µM; ZIKV-induced CPE [13]: able to prevent ZIKV-induced CPE; selectivity ratio at 60 h ([14]; African green monkey, Vero cells infected with ZIKV Nigeria/1968): > 62.6; IC50 ([14]; Zika virus, Vero, 60 h): 16 ± 1.02 µM; caspase 3 and 7 induction as compared to mock-infected cells [15]: 1.7 fold; toxicity (cell viability) [16]: did not observe any toxicity; CC50 at 36 h [4]: > 1000 µM; CC50 at 72 h [4]: > 1000 µM; CC50 [4, 24]: > 1000 µM; selectivity ratio at 48 h ([17]; African green monkey, Vero cells infected with ZIKV French Polynesia/2013): > 76.8; IC50 ([17]; Zika virus, Vero, 48 h): 13.9 ± 1.01 µM; IC50 [5]: 33.3 ± 1.13 µM; selectivity ratio at 36 h [5]: 26.3; ZIKV replication (viral titer in supernatant) ([18]; MOI 0.1, 2.5 μM): partial viral inhibition; ZIKV replication (viral titer in supernatant) ([18]; MOI 0.1, 250 μM): completely inhibited; selectivity ratio at 12 h ([19]; African green monkey, pre-treatment 12 h, read-out: SI (selective index, CC50/IC50)): > 69.8; selectivity ratio at 24 h ([19]; African green monkey, pre-treatment 24 h, read-out: SI (selective index, CC50/IC50)): > 75.9; selectivity ratio at 48 h ([19]; African green monkey, pre-treatment 48 h, read-out: SI (selective index, CC50/IC50)): > 79.4; selectivity ratio at 72 h ([19]; African green monkey, pre-treatment 72 h, read-out: SI (selective index, CC50/IC50)): > 95.2; IC50 ([19]; pre-treatment 12 h before infection): 14.3 ± 1.06 µM; IC50 ([19]; pre-treatment 24 h before infection): 13.2 ± 1.05 µM; IC50 ([19]; pre-treatment 48 h before infection): 12.6 ± 1.02 µM; IC50 ([19]; pre-treatment 72 h before infection): 10.5 ± 1.05 µM

**Q.** Which SI [20] does the source give for CC[C@H]1CN2CCc3cc(OC)c(OC)cc3[C@@H]2C[C@@H]1C[C@H]1NCCc2cc(OC)c(OC)cc21 [emetine] here?
**A.** 9.84

**Q.** And the SI [21]?
**A.** 2.88

**Q.** With CC(C)OC(=O)[C@H](C)N[P@](=O)(OC[C@H]1O[C@@H](n2ccc(=O)[nH]c2=O)[C@](C)(F)[C@@H]1O)Oc1ccccc1 [sofosbuvir] as the molecule, how does the SI [22] read?
**A.** > 52.63

**Q.** And the SI [23]?
**A.** > 90.9
